Read-outs that look alike come from different tables or passages of the source. Some results are limits rather than exact numbers.

The test system of one series is Escherichia coli. Briefly: Antimicrobial assay, minimal inhibitory concentration. Format: cell-based. The note with it: Escherichia coli, read-out: E. coli MIC.
The test system of the next series is CEM cells. Briefly: Cell uptake procedure (intracellular nucleotide levels by HPLC). The series is classed as cell-based, Human. The note with it: 24 hour incubation, limit of detection about 5 pmol/10^6 cells. The method, then: CEM cells were resuspended in RPMI at 1×10^7 cells/mL. The appropriate amount of each compound was added to well and then 0.5 ml of the cells was aliquoted into the appropriate number of wells of a 24-well plate and incubated the cells at 37° C. Cells were harvested after 24 hours of incubation. To harvest cells they were transferred to a microfuge tube and spun for one minute at high speed. The samples were washed in PBS containing 1 mg/ml BSA and re-centrifuged. The PBS was then aspirated and 200 μL of ice-cold 60% methanol was added to extract the nucleotides. The extracts were incubated overnight at −20° C. The next day the samples were spun at high speed in a microfuge for 20 minutes and the supernatant transferred to clean tubes and dried in the speed vac. After drying the samples were resuspended in 50 μl, filtered, and the samples then directly injected onto the HPLC. The nucleotides were analyzed using reverse phase HPLC with ion-pairing agents for separation of the nucleotides. The procedure was adapted from the following paper: Furman, et al., Proc. Natl. Acad. Sci. USA 1986, 83, 8333-8337.
The limit of detection was estimated to be 5 pmol/10^6 cells.

Series [1] in a line: Compound toxicity in CEM-SS cells (MTS staining). Format: cell-based. The following applies: human, read-out: CEM-SS TC50.
Another series can be described thus: in vitro. The note with it: human, pH 7.4.
The subject of another series is HIV-1RF. Kind of series: Anti-HIV-1 cytoprotection assay in CEM-SS cells. The series is classed as cell-based. The note with it: Human immunodeficiency virus 1, 144 h; CEM-SS cells infected with HIV-1RF, MOI approximately 0.01, 6 days, MTS; read-out: CEM-SS IC50 (Anti-HIV Screening).

A word on the MIC: it is the lowest concentration found to suppress growth. A word on the half-life: it is the time in which the quantity being followed falls by half. Low values mean rapid decline, high ones slow decline. Broadly, the IC50 is the concentration that inhibits the measured activity by half. For `[BH3-][P+](O)(OCC1OC(n2cc(C)c(=O)[nH]c2=O)CC1N=[N+]=[N-])OP(=O)(O)C(F)(F)P(=O)(O)O` (single isomer, unassigned) [Compound 27-isomer 1, 3′-Azido-3′-deoxythymidine 5′-α-P-borano-β,γ-(difluoromethylene)triphosphate], the minimal inhibitory concentration (MIC) in the series on Escherichia coli (overnight at 37° C., tested 0-200 μg/ml, NA = Not active) was 60 µg/mL; with Escherichia coli (value in brackets beside the μg/ml value), 111 µM. In addition, the “Intracellular levels of 27” value is on record as “BLD” in the series with CEM cells (incubation concentration 25 μM), 5.6 pmol/10^6 cells with CEM cells (incubation concentration 50 μM) and 10.6 pmol/10^6 cells in the series on CEM cells (incubation concentration 100 μM). The CC50 in series [1] is > 200000 nM. Besides, the half-life at 500 μM in the series “in vitro” was > 48 h. Moreover, the half-maximal inhibitory concentration (IC50) in the series on HIV-1RF amounted to 1640 nM.

The values above are taken from patent US20040059104A1, “Nucleotide mimics and their prodrugs” (priority 2002, published 2004).
